Measured values from patent publication US20250154134A1, “COMPOUND AS FAK INHIBITOR AND USE THEREOF” (WIGEN BIOMEDICINE TECHNOLOGY (SHANGHAI) CO., LTD., priority 2022, published 2025).
Read-outs that look alike come from different tables or passages of the source.

What was measured:
PC3 cells [1] = assay: PC3 cell proliferation, 2D activity assay (Cell Titer-Lumi, 72 h); type: cell-based, human; conditions: Homo sapiens, PC-3, read-out: 2D inhibitory activity against PC3 cells IC50
PC3 cells [2] = assay: PC3 cell proliferation, 3D activity assay (3D culture, 14 days); type: cell-based, human; conditions: Homo sapiens, PC-3, 336 h, read-out: 3D inhibitory activity against PC3 cells IC50
PC3 cells [3] = assay: Inhibition of PC3 cell low adsorption (adherent cell count, 4 h); type: cell-based; conditions: Homo sapiens, PC-3; 4 h treatment; read-out: IC50 against PC3 cell low adsorption
Procedure: PC3 cells were seeded at 8000 cells/well. 4 h after the cells were treated with a compound, the number of adherent cells was counted. The inhibition percentage and IC50 of the compound were calculated compared to the DMSO group.

[4] = In vivo pharmacokinetic experiment in CD-1 mice; conditions: mouse, plasma, CD-1 female mice; for Vd: read-out: Vdss
Procedure: […] The mice were fasted for at least 12 h before the administration and given food 4 h after the administration, and they were given ad libitum access to water during the experiment.
On the day of the experiment, animals in the intravenous group were given the corresponding compound by single injection via the tail vein at an administration volume of 10 mL/kg; and animals in the oral group were given the corresponding compound by single intragastric injection at an administration volume of 10 mL/kg. The animals were weighed before administration, and the administration volume was calculated according to the body weight. The sample collection time points were 0.083 h, 0.167 h, 0.5 h, 1 h, 2 h, 4 h, 8 h, and 24 h. About 200 μL of whole blood was collected through the orbital venous plexus at each time point and used to prepare plasma for concentration determination by high-performance liquid chromatography-tandem mass spectrometry (LC-MS/MS). The plasma concentrations were processed using a non-compartmental model of Winnolin pharmacokinetic software, and the pharmacokinetic parameters were calculated using a linear-log trapezoidal method.

FAK recombinant protein = FAK recombinant protein (Homo sapiens (Human), UniProt Q05397); assay: Inhibitory activity against FAK enzyme (HTRF, TK substrate); type: biochemical
Procedure: A compound serially diluted with DMSO was mixed with a FAK recombinant protein. After the mixture was left to stand at room temperature for 10 min, a biotin-labeled TK substrate (TK) and ATP were added. […] The inhibition percentage and IC50 of the compound were calculated compared to the DMSO control group.

[5] = test system: phosphorylation at the FAK 397 site; assay: Inhibition of Y397 phosphorylation in PC3 cells (ELISA); type: cell-based; conditions: Homo sapiens, PC-3, 3 h treatment, read-out: IC50 against Y397 phosphorylation
Procedure: PC3 cells were seeded at 8000 cells/well. […] The inhibition percentage and IC50 of the compound were calculated compared to the DMSO group.

[6] = test system: Human pancreatic cancer Mia PaCa-2 cells; assay: In vivo efficacy, Mia PaCa-2 xenograft in nude mice; design: species or system mouse; conditions: MiaPaCa-2 model, 25 mg/kg PO QD 21 days
Procedure: (§1) The groups were as follows: 1) a solvent control group, 8 mice; and 2) a control compound group and a test compound group, 8 mice each. The mice in the solvent control group were intragastrically administered 0.5% CMC-Na twice a day; the mice in the compound groups were intragastrically administered 0.50% MC-Tween-80 suspension once a day. On Tuesday and Thursday each week, tumor volumes and body weight of the mice were measured, and the nude mice were sacrificed on day 21 after the administration. […] The toxicity of the compounds was evaluated according to the body weight of the mice.

[7] = test system: Human prostate cancer PC3 cells; assay: In vivo efficacy, PC3 xenograft in nude mice; design: species or system mouse; conditions: PC-3 model, 25 mg/kg, QD (21 days), PO
Procedure: as §1, with “0.5%” for “0.50%”

[8] = intravenous, injection (1 mg/kg)

FAK recombinant protein, sequence (Q05397 whole entry): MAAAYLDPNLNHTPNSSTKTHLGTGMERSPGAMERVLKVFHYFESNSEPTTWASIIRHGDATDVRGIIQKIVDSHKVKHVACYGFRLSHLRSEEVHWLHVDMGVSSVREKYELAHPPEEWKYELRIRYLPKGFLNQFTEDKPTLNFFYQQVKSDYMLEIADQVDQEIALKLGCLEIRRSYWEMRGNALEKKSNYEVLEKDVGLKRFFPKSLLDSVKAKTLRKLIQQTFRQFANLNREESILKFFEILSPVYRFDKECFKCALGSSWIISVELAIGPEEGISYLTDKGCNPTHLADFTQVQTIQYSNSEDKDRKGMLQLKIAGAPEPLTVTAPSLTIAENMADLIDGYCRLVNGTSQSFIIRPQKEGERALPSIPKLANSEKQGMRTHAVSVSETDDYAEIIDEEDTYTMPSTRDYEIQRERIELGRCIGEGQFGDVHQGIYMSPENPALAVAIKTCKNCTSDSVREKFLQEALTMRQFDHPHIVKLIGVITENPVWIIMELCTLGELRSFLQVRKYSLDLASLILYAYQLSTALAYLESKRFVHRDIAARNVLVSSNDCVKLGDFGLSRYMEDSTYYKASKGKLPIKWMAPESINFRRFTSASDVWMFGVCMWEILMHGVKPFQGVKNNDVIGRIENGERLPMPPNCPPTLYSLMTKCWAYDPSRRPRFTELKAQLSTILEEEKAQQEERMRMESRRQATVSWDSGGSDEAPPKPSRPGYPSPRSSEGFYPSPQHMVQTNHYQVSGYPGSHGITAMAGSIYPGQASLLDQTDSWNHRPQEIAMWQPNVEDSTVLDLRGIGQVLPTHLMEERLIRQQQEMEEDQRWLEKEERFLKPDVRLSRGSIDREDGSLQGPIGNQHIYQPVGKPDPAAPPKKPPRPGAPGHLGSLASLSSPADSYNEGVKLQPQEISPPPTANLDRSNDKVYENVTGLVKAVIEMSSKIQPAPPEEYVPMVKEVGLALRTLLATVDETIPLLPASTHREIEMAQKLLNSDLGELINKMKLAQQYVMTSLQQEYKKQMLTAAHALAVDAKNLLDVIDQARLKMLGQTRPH

Structure (SMILES)	IC50 (PC3 cells [1])	IC50 (PC3 cells [2])	IC50 (PC3 cells [3])	AUC(0-t) [4, 8]	clearance [4, 8]	half-life [4, 8]	Vd [4, 8]	AUC(0-t) ([4]; oral administration (10 mg/kg))	Cmax ([4]; oral administration (10 mg/kg))	Tmax ([4]; oral administration (10 mg/kg))	bioavailability ([4]; oral administration (10 mg/kg))	IC50 (FAK recombinant protein)	IC50 [5]	AUC(0-t) ([4]; iv, injection (1 mg/kg))	clearance ([4]; iv, injection (1 mg/kg))	half-life ([4]; iv, injection (1 mg/kg))	Vd ([4]; iv, injection (1 mg/kg))	half-life ([4]; oral administration (10 mg/kg))	TGI(%) [6]	TGI(%) [7]
COc1cc(C(=O)NC2CCN(C)CC2)ccc1Nc1ncc(C(F)(F)F)c(Oc2cccc3c2C(=O)N(C)C32CC2)n1 [Compound 3, 3-methoxy-4-((4-((2′-methyl-3′-oxospiro[cyclopropane-1,1′-isoindolin]-4′-yl)oxy)-5-(trifluoromethyl)pyrimidin-2-yl)amino)-N-(1-methylpiperidin-4-yl)benzamide]	> 2000 nM	0.45 nM	3.14 nM	248 ng·h/mL	67.1 mL/min/kg	2.14 h	6.14 L/kg	190 ng·h/mL	57.2 ng/mL	4 h	7.94%									
COc1cc(N2CCN(C)CC2)ccc1Nc1ncc(C(F)(F)F)c(Oc2cccc3c2C(=O)N(C)C32CC2)n1 [Compound 73]	> 10000 nM	1.99 nM	5.01 nM					2890 ng·h/mL	624 ng/mL	0.5 h	59.3%	< 20 nM	0.028 nM	414 ng·h/mL	40.2 mL/min/kg	1.93 h	5.67 L/kg	3.32 h		74.07%
COc1cc(N2CCC(N3CCN(C)CC3)CC2)ccc1Nc1ncc(C(F)(F)F)c(Oc2cccc3c2C(=O)N(C)C32CC2)n1 [Compound 78]	> 10000 nM	0.78 nM	5.83 nM									< 20 nM	< 0.01 nM							
CN1Cc2cc(Nc3ncc(C(F)(F)F)c(Oc4cccc5c4C(=O)N(C)C54CC4)n3)cc3c2C(CCO3)C1 (stereo not drawn) [Compound 89]	> 10000 nM	5 to 50 nM	36.2 nM									< 20 nM								
Cc1cc(Nc2ncc(C(F)(F)F)c(Oc3cccc4c3C(=O)N(C)C43CC3)n2)n(C(C)C)n1 [Compound 91]	> 2000 nM	5 to 50 nM	36.4 nM									< 20 nM								
CN1C(=O)c2c(Oc3nc(Nc4cc5n(n4)CCC5)ncc3C(F)(F)F)cccc2C12CC2 [Compound 92, 4′-((2-((5,6-dihydro-4H-pyrrolo[1,2-b]pyrazol-2-yl)amino)-5-(trifluoromethyl)pyrimidin-4-yl)oxy)-2′-methylspiro[cyclopropane-1,1′-isoindolin]-3′-one]	> 2000 nM	5 to 50 nM	62 nM									< 20 nM								
COc1cc(C(=O)NC2CCN(C)CC2)ccc1Nc1ncc(Cl)c(Oc2cccc3c2C(=O)N(C)C32CC2)n1 [Compound 114, 4-((5-chloro-4-((2′-methyl-3′-oxospiro[cyclopropane-1,1′-isoindolin]-4′-yl)oxy)pyrimidin-2-yl)amino)-3-methoxy-N-(1-methylpiperidin-4-yl)benzamide]	> 2000 nM	1.09 nM	2.85 nM									< 20 nM	0.39 nM							
COc1cc(N2CCC(N3CCN(C)CC3)CC2)ccc1Nc1ncc(Cl)c(Oc2cccc3c2C(=O)N(C)C32CC2)n1 [Compound 139]	> 2000 nM	1.7 nM	5.2 nM									< 20 nM	0.56 nM							
COc1cc(CN(C)C2CCN(C)CC2)ccc1Nc1ncc(Cl)c(Oc2cccc3c2C(=O)N(C)C32CC2)n1 [Compound 154]	> 2000 nM	5 to 50 nM	6.9 nM									< 20 nM								

Now from value to compound, other results behind:

IC50 (PC3 cells [1])	IC50 (PC3 cells [2])	IC50 (PC3 cells [3])	AUC(0-t) [4, 8]	clearance [4, 8]	half-life [4, 8]	Vd [4, 8]	AUC(0-t) ([4]; oral administration (10 mg/kg))	Cmax ([4]; oral administration (10 mg/kg))	Tmax ([4]; oral administration (10 mg/kg))	bioavailability ([4]; oral administration (10 mg/kg))	IC50 (FAK recombinant protein)	IC50 [5]	AUC(0-t) ([4]; iv, injection (1 mg/kg))	clearance ([4]; iv, injection (1 mg/kg))	half-life ([4]; iv, injection (1 mg/kg))	Vd ([4]; iv, injection (1 mg/kg))	half-life ([4]; oral administration (10 mg/kg))	Structure (SMILES)	TGI(%) [6]	TGI(%) [7]
> 2000 nM	2.01 nM	6.87 nM					2090 ng·h/mL	361 ng/mL	4 h	42.6%	< 20 nM	0.025 nM	489 ng·h/mL	34 mL/min/kg	1.78 h	4.35 L/kg		COc1cc(C(=O)NC2CCN(C)CC2)c(F)cc1Nc1ncc(C(F)(F)F)c(Oc2cccc3c2C(=O)N(C)C32CC2)n1 [Compound 4]	69.02%	61.48%
> 2000 nM	5 to 50 nM	4.6 nM					7850 ng·h/mL	822 ng/mL	2 h	123%	< 20 nM	0.7 nM	640 ng·h/mL	26.1 mL/min/kg	1.81 h	3.47 L/kg	2.22 h	COc1cc(C(=O)NC2CCN(C)CC2)c(F)cc1Nc1ncc(Cl)c(Oc2cccc3c2C(=O)N(C)C32CC2)n1 [Compound 117]	62.86%	
> 2000 nM	< 5 nM	7.2 nM									< 20 nM							COc1cc(N2CCC(N3CCN(C)CC3)CC2)c(F)cc1Nc1ncc(C(F)(F)F)c(Oc2cccc3c2C(=O)N(C)C32CC2)n1 [Compound 121, 4′-((2-((5-fluoro-2-methoxy-4-(4-(4-methylpiperazin-1-yl)piperidin-1-yl)phenyl)amino)-5-(trifluoromethyl)pyrimidin-4-yl)oxy)-2′-methylspiro[cyclopropane-1,1′-isoindolin]-3′-one]		
> 2000 nM	5 to 50 nM	13.9 nM									< 20 nM							COc1cc(N2CCN(C)CC2)ccc1Nc1ncc(Cl)c(Oc2cccc3c2C(=O)N(C)C32CC2)n1 [Compound 141]		
> 2000 nM	0.38 nM	1.86 nM					7450 ng·h/mL	815 ng/mL	2 h	67%	< 20 nM	0.02 nM	1110 ng·h/mL	15 mL/min/kg	5.89 h	7.51 L/kg	3.37 h	COc1cc(N2CC3(CCN(C)CC3)C2)ccc1Nc1ncc(Br)c(Oc2cccc3c2C(=O)N(C)C32CC2)n1 [Compound 177, 4′-((5-bromo-2-((2-methoxy-4-(7-methyl-2,7-diazaspiro[3.5]nonan-2-yl)phenyl)amino)pyrimidin-4-yl)oxy)-2′-methylspiro[cyclopropane-1,1′-isoindolin]-3′-one]		
> 2000 nM	0.38 nM	6.22 nM									< 20 nM							COc1cc(N2CC3(CCN(C)CC3)C2)c(F)cc1Nc1ncc(Br)c(Oc2cccc3c2C(=O)N(C)C32CC2)n1 [Compound 178]	82.41%	
> 2000 nM	0.33 nM	1.6 nM									< 20 nM	0.05 nM						COc1cc(N2CC3(CCN(C)CC3)C2)ccc1Nc1ncc(C#N)c(Oc2cccc3c2C(=O)N(C)C32CC2)n1 [Compound 196, 2-((2-methoxy-4-(7-methyl-2,7-diazaspiro[3.5]nonan-2-yl)phenyl)amino)-4-((2′-methyl-3′-oxospiro[cyclopropane-1,1′-isoindolin]-4′-yl)oxy)pyrimidine-5-carbonitrile]		
> 2000 nM	2.42 nM	1.67 nM									< 20 nM							COc1cc(N2CC3(CCN(C)CC3)C2)c(F)cc1Nc1ncc(C#N)c(Oc2cccc3c2C(=O)N(C)C32CC2)n1 [Compound 197]		
